PubChem BioAssay (NCI)
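Dose response: 5 concentrations. Exposure: 48 h. Format: 96-well plates. Endpoint: linear interpolation; highest concentration if not reached. GI50 is the concentration that inhibits growth by half. Definition used: TGI = concentration required for complete inhibition of growth.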

Assays:
Assay in all cases: NCI tumour cell line growth inhibition, 48 h
[1] = system: SR leukemia
[2] = system: SF-539 CNS
[3] = system: CCRF-CEM leukemia
[4] = system: PC-3 prostate
[5] = system: A549 NSCLC
[6] = system: OVCAR-3 ovarian
[7] = system: HL-60(TB) leukemia
[8] = system: UO-31 renal
[9] = system: NCI-H460 lung
[10] = system: BT-549 breast
[11] = system: 786-0 renal
[12] = system: SK-MEL-5 melanoma
[13] = system: HS 578T breast
[14] = system: SW-620 colon
[15] = system: SK-MEL-28 melanoma
[16] = system: UACC-257 melanoma
[17] = system: SF-295 CNS
[18] = system: UACC-62 melanoma
[19] = system: NCI-H226 lung
[20] = system: NCI/ADR-RES ovarian
[21] = system: T-47D breast
[22] = system: DU-145 prostate
[23] = system: SNB-19 CNS
[24] = system: SNB-75 CNS
[25] = system: HOP-62 NSCLC
[26] = system: NCI-H522 lung
[27] = system: OVCAR-4 ovarian
[28] = system: OVCAR-8 ovarian
[29] = system: TK-10 renal
[30] = system: SK-MEL-2 melanoma
[31] = system: ACHN renal
[32] = system: A498 renal
[33] = system: MOLT-4 leukemia
[34] = system: IGROV1 ovarian
[35] = system: HCT-15 colon
[36] = system: RXF 393 renal
[37] = system: MDA-MB-435
[38] = system: HCC-2998 colon
[39] = system: HOP-92 NSCLC
[40] = system: MCF7 breast
[41] = system: KM12 colon
[42] = system: MDA-MB-231 breast
[43] = system: U251 CNS
[44] = system: HCT-116 colon
[45] = system: SF-268 CNS
[46] = system: LOX IMVI melanoma
[47] = system: SK-OV-3 ovarian
[48] = system: COLO 205 colon
[49] = system: OVCAR-5 ovarian
[50] = system: RPMI-8226 leukemia
[51] = system: MALME-3M melanoma
[52] = system: NCI-H23 lung
[53] = system: CAKI-1 renal
[54] = system: SN12C renal
[55] = system: M14 melanoma
[56] = system: HT29 colon
[57] = system: K-562 leukemia
[58] = system: EKVX NSCLC

CN1CCN(Cc2ccc(NC(=O)c3cncc(C#Cc4cnc5ccc(NCCO)nn45)c3)cc2C(F)(F)F)CC1
GI50 [1]: 58.4 nM | TGI [1]: 1360 nM | GI50 [2]: 61.6 nM | TGI [2]: 596 nM | GI50 [3]: 31 nM | TGI [3]: 17800 nM | GI50 [4]: 457 nM | TGI [4]: 3920 nM | GI50 [5]: 718 nM | TGI [5]: 4650 nM | GI50 [6]: 349 nM | TGI [6]: 2060 nM | GI50 [7]: 138 nM | TGI [7]: 609 nM | GI50 [8]: 2000 nM | TGI [8]: 6880 nM | GI50 [9]: 209 nM | TGI [9]: 718 nM | GI50 [10]: 824 nM | TGI [10]: 1620 nM | GI50 [11]: 853 nM | TGI [11]: 2030 nM | GI50 [12]: 797 nM | TGI [12]: 1830 nM | GI50 [13]: 115 nM | TGI [13]: 863 nM | GI50 [14]: 118 nM | TGI [14]: 580 nM | GI50 [15]: 529 nM | TGI [15]: 1740 nM | GI50 [16]: 608 nM | TGI [16]: 2230 nM | GI50 [17]: 717 nM | TGI [17]: 4940 nM | GI50 [18]: 532 nM | TGI [18]: 1620 nM | GI50 [19]: 75.8 nM | TGI [19]: 1310 nM | GI50 [20]: 30100 nM | TGI [20]: 50000 nM | GI50 [21]: 603 nM | TGI [21]: 4220 nM | GI50 [22]: 486 nM | TGI [22]: 3470 nM | GI50 [23]: 901 nM | TGI [23]: 3990 nM | GI50 [24]: 87.4 nM | TGI [24]: 414 nM | GI50 [25]: 324 nM | TGI [25]: 1420 nM | GI50 [26]: 187 nM | TGI [26]: 940 nM | GI50 [27]: 378 nM | TGI [27]: 2100 nM | GI50 [28]: 698 nM | TGI [28]: 4050 nM | GI50 [29]: 1200 nM | TGI [29]: 2990 nM | GI50 [30]: 131 nM | TGI [30]: 435 nM | GI50 [31]: 1700 nM | TGI [31]: 5860 nM | GI50 [32]: 385 nM | TGI [32]: 946 nM | GI50 [33]: 141 nM | TGI [33]: 3860 nM | GI50 [34]: 239 nM | TGI [34]: 2440 nM | GI50 [35]: 1650 nM | TGI [35]: 6490 nM | GI50 [36]: 590 nM | TGI [36]: 1350 nM | GI50 [37]: 123 nM | TGI [37]: 919 nM | GI50 [38]: 687 nM | TGI [38]: 3200 nM | GI50 [39]: 19 nM | TGI [39]: 87.4 nM | GI50 [40]: 90.3 nM | TGI [40]: 787 nM | GI50 [41]: 5 nM | TGI [41]: 1300 nM | GI50 [42]: 79.5 nM | TGI [42]: 335 nM | GI50 [43]: 609 nM | TGI [43]: 1450 nM | GI50 [44]: 92.1 nM | TGI [44]: 675 nM | GI50 [45]: 207 nM | TGI [45]: 1110 nM | GI50 [46]: 179 nM | TGI [46]: 769 nM | GI50 [47]: 805 nM | TGI [47]: 3200 nM | GI50 [48]: 111 nM | TGI [48]: 306 nM | GI50 [49]: 342 nM | TGI [49]: 4330 nM | GI50 [50]: 1010 nM | TGI [50]: 2970 nM | GI50 [51]: 135 nM | TGI [51]: 635 nM | GI50 [52]: 277 nM | TGI [52]: 1310 nM | GI50 [53]: 764 nM | TGI [53]: 3470 nM | GI50 [54]: 172 nM | TGI [54]: 2630 nM | GI50 [55]: 231 nM | TGI [55]: 864 nM | GI50 [56]: 188 nM | TGI [56]: 1430 nM | GI50 [57]: 5 nM | TGI [57]: 794 nM | GI50 [58]: 673 nM | TGI [58]: 4010 nM
